Test results taken from ChEMBL document CHEMBL1201862, “PubChem BioAssay data set” (2004).
Values belong to the molecule of their own block, whether it stands above or below them. Calls of active or inactive are those of the source. Cut-off read from the data, not from the text of the source, for most assays here: actives have a measured IC50 and inactives only a lower limit.

Legend:
[1] = target: T1, Ubiquitin-conjugating enzyme E2 N (Homo sapiens, UniProt P61088); type: functional
T1 sequence (P61088 whole entry): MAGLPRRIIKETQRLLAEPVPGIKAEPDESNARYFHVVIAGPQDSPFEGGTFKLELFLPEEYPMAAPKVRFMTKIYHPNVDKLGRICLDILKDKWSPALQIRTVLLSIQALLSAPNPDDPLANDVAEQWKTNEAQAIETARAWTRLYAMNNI

Bcl-2-related protein A1 = target: T2, Bcl-2-related protein A1 (Mus musculus, UniProt Q07440); type: functional;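 note: confirmatory dose–response counterscreen on Bfl-1, used to check hits from a UBC13 polyubiquitin inhibitor campaign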
T2 sequence (Q07440 whole entry): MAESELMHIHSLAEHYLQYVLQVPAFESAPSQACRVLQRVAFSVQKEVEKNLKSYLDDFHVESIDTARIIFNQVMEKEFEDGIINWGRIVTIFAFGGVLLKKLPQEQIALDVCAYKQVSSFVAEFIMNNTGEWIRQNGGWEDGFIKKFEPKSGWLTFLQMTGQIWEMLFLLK

[2] = target: T1, Ubiquitin-conjugating enzyme E2 N; type: functional; remark: listed apart in the source
Exodeoxyribonuclease V = Exodeoxyribonuclease V (Escherichia coli (strain K12), UniProt P04993+P07648+P08394); test: RecBCD inhibition via phage-restricted bacterial growth – absorbance, V66 E. coli, mutant T4 phage, counter-screen for AddAB inhibitor project, dose response (AID 492957); type: functional, cell-based, Escherichia coli str. K-12 substr. MG1655
Exodeoxyribonuclease V, sequence (P04993 whole entry): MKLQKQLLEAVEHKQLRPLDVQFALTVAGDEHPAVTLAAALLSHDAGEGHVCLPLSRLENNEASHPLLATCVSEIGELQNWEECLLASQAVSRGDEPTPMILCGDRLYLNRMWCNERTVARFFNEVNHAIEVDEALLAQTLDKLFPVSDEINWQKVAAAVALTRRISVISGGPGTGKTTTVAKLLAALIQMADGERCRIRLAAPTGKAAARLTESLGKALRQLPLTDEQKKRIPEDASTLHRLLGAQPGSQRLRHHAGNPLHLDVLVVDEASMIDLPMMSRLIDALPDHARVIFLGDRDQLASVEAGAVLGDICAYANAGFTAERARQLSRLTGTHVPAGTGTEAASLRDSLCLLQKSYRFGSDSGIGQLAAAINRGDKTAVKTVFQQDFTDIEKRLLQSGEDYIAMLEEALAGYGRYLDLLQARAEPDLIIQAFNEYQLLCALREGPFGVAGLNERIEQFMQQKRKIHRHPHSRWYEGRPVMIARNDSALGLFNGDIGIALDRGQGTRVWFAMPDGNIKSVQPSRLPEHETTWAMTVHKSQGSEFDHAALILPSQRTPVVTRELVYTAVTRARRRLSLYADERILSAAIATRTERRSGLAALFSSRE
Exodeoxyribonuclease V, sequence (P07648 whole entry): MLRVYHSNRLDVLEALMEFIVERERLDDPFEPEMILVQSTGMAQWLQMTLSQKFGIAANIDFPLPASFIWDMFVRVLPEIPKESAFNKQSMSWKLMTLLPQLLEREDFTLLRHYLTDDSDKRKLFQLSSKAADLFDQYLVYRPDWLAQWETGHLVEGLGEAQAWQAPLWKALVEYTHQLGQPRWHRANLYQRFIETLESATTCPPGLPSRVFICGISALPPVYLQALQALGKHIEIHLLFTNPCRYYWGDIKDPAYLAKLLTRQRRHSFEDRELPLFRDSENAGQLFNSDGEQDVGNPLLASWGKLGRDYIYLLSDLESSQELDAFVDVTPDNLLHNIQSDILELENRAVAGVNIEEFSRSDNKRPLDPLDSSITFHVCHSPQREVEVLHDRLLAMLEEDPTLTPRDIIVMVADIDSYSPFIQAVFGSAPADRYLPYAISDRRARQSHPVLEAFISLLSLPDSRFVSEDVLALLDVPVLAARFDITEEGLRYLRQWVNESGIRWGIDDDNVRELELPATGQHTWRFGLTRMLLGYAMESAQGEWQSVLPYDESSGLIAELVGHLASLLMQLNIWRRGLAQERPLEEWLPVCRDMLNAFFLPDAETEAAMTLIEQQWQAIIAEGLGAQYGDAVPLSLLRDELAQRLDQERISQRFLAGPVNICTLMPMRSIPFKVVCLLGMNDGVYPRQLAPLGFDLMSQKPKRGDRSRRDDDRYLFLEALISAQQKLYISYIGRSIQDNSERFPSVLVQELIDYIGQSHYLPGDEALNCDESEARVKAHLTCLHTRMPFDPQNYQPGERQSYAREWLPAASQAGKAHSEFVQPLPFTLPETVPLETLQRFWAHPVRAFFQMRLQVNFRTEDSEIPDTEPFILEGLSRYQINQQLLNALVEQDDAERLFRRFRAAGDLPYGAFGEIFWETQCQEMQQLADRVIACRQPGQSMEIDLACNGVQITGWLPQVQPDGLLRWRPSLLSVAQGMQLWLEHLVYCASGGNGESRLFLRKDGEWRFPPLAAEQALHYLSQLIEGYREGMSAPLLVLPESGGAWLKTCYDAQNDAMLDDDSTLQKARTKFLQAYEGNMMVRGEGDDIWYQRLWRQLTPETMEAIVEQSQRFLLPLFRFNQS
Exodeoxyribonuclease V, sequence (P08394 whole entry): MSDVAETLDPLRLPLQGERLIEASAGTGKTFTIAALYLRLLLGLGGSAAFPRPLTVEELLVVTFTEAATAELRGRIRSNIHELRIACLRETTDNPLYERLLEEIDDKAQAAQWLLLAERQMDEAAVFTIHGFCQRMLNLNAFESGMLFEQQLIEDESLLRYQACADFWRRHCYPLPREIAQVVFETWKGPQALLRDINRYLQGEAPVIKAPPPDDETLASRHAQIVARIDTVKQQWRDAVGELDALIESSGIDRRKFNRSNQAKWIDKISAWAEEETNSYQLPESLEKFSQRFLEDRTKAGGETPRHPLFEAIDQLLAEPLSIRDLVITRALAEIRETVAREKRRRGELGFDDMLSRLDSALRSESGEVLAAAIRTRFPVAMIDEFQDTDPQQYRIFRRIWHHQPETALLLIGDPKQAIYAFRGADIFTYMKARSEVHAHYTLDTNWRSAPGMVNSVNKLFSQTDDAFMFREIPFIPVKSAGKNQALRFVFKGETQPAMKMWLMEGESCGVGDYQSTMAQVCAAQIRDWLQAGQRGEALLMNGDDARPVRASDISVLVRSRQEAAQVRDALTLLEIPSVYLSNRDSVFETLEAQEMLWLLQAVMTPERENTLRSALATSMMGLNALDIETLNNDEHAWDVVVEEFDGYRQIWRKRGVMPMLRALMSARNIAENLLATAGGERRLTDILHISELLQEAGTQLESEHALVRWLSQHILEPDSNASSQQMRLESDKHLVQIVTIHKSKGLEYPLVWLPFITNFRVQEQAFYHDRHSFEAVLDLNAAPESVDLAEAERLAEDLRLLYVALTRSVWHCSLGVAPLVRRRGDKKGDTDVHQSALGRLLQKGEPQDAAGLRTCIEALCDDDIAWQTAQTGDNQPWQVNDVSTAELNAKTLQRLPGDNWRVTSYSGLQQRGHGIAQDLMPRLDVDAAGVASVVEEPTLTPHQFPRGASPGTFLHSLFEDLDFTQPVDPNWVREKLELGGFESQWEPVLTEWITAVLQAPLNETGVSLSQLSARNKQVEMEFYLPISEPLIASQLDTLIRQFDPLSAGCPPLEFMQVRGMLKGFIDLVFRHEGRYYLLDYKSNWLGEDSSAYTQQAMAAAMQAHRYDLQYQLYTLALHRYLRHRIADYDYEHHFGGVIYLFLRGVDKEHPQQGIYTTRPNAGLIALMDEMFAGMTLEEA

[3] = Counterscreen for AddAB inhibitors: absorbance-based bacterial cell-based high throughput dose response assay for inhibitors of bacterial viability. [Related pubchem assays (depositor defined):AID435030, AID449728, AID449731, AID488942, AID488955, AID488956]; type: functional
[4] = target: T3, Alkaline phosphatase, tissue-nonspecific isozyme (Homo sapiens, UniProt P05186); test: potency against alkaline phosphatase TNAP – biochemical, luminescent, dose response, SAR follow-up (AID 1056)
T3 sequence (P05186 whole entry): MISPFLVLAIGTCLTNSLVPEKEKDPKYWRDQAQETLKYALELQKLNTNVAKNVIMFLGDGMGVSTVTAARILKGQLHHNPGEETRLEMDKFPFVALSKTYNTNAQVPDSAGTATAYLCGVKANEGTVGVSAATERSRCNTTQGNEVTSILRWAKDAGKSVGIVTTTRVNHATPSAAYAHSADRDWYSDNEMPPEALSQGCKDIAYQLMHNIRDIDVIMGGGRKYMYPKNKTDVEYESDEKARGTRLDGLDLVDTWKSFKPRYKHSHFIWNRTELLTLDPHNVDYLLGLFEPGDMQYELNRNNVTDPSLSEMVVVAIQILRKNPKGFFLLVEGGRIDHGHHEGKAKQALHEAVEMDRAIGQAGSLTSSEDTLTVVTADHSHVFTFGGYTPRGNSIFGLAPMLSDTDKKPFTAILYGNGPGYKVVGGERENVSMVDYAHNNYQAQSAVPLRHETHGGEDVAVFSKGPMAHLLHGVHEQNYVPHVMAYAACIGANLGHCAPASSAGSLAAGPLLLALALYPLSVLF

[5] = target: Glyceraldehyde-3-phosphate dehydrogenase (Homo sapiens, UniProt P04406)
Glyceraldehyde-3-phosphate dehydrogenase, sequence (P04406 whole entry): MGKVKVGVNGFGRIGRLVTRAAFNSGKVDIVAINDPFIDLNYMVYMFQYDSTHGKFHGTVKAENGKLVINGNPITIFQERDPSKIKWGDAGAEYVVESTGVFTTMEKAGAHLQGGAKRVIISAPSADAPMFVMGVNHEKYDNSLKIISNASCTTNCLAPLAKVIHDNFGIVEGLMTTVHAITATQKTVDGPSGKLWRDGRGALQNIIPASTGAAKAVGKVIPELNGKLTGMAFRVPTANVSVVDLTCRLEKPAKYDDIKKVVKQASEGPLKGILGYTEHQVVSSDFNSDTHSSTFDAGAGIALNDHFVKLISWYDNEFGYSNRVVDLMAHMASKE

[6] = target: Intestinal-type alkaline phosphatase (Mus musculus, UniProt P24822); test: PubChem AID 488785; type: functional
Intestinal-type alkaline phosphatase (Mus musculus, UniProt P24822), sequence (P24822 whole entry): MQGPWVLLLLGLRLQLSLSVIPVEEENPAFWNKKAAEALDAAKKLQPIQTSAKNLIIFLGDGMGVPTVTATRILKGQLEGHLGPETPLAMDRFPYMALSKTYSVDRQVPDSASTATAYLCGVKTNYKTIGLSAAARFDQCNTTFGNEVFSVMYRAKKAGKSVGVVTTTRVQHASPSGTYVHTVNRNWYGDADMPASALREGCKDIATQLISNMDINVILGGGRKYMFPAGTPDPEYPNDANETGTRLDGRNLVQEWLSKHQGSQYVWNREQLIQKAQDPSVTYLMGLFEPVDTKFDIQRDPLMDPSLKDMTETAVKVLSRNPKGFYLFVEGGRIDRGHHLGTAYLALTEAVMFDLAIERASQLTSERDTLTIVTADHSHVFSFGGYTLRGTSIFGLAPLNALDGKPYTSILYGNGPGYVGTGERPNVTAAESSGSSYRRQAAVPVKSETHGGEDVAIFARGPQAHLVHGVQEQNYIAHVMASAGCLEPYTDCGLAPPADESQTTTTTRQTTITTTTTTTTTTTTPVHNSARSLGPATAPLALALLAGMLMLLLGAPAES

[7] = target: Intestinal-type alkaline phosphatase (Homo sapiens, UniProt P09923); test: inhibition of human intestinal alkaline phosphatase – biochemical, dose response (AID 488876); type: functional
Intestinal-type alkaline phosphatase (Homo sapiens, UniProt P09923), sequence (P09923 whole entry): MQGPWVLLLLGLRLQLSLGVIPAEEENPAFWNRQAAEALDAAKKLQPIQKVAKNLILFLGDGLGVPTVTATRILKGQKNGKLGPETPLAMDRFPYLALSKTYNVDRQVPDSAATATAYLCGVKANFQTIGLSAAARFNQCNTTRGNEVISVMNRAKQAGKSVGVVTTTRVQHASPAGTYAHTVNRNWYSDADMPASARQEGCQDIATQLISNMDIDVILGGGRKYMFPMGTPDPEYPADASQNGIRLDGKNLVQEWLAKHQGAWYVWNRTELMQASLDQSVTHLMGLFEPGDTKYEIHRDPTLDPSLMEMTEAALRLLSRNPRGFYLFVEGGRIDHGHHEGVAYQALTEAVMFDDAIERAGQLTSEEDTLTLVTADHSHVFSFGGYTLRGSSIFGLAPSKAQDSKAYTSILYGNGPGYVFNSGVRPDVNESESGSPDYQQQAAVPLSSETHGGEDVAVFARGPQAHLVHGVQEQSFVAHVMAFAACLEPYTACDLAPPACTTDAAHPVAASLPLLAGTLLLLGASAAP

[8] = target: T3, Alkaline phosphatase, tissue-nonspecific isozyme; test: TNAP enzyme inhibition by screening hits, dose response, selectivity assay for mouse IAP inhibitor project, biochemical, human TNAP, uHTS hits (AID 488906); type: functional
[9] = target: DNA dC->dU-editing enzyme APOBEC-3A (Homo sapiens, UniProt P31941); test: Dose Response confirmation of small molecule APOBEC3A DNA Deaminase Inhibitors via a fluorescence-based single-stranded DNA deaminase assay. [Related pubchem assays (depositor defined):AID493011, AID493024]; type: functional
DNA dC->dU-editing enzyme APOBEC-3A, sequence (P31941 whole entry): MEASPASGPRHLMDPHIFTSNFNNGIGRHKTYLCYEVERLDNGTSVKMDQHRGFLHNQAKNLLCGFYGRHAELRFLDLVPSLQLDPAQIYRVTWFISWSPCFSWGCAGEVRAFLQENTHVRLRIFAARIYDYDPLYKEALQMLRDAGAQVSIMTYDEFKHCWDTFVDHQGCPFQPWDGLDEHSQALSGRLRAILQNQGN

[10] = target: DNA dC->dU-editing enzyme APOBEC-3G (Homo sapiens, UniProt Q9HC16); type: functional;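 note: Dose-response counterscreen measuring inhibition of APOBEC3G DNA deaminase activity, run while confirming APOBEC3A inhibitors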
DNA dC->dU-editing enzyme APOBEC-3G, sequence (Q9HC16 whole entry): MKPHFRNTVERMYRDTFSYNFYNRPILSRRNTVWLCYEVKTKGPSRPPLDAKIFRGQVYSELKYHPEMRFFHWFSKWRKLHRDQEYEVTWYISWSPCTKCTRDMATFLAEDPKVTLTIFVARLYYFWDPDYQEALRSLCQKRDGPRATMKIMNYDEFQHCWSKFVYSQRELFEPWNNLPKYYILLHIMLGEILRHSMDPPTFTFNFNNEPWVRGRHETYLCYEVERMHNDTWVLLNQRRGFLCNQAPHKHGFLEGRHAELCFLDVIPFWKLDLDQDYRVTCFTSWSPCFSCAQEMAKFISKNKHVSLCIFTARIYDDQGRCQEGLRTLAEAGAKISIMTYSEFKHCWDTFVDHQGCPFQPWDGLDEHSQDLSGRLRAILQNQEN

Structure (SMILES): CC(=O)Nc1ccc2nc(NC(=O)c3ccc([N+](=O)[O-])o3)sc2c1
IC50 (Exodeoxyribonuclease V): > 119 µM (inactive) | IC50 [3]: > 119 µM (inactive)

Structure (SMILES): COc1ccc(Cl)cc1NC(=S)NCCC(c1ccccc1)c1ccccc1
IC50 [6]: 11.3 µM (active) | IC50 [7]: 15.9 µM (active) | IC50 [8]: 23.9 µM (active)

Structure (SMILES): CC1=CC(C)(C)[N+](C)=CN1c1ccccc1
IC50 [9]: 2.19 µM (active) | IC50 [10]: 4.28 µM (active)

More lines, now with the values ahead:

IC50 [1]: 9.72 µM (active) | IC50 (Bcl-2-related protein A1): > 20 µM (inactive) | IC50 [2]: 14.4 µM (active)
Structure (SMILES): Cc1ccc(NC(=O)C[n+]2ccn(C3=C([O-])c4ccccc4C3=O)c2)cc1

IC50 [4]: > 10 µM (inactive) | IC50 [5]: > 10 µM (inconclusive)
Structure (SMILES): O=S(=O)(Nc1ccc2ccccc2c1)c1ccc(Br)cc1OC(F)(F)F
